The results in this text go back to the supplement of paper PMC12137928.

For the assay, the system named is HCT116. The conditions noted are these: 72 h. A digest of the protocol: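 After seeding at 250 cells per well in 1536-well plates, HCT116 cells were given 5 h to attach. CellTiter-Glo luminescence, scaled to 0% for vehicle and -100% for positive control, was pattern-corrected. Fitting with a four-parameter Hill model produced IC50 and maximal efficacy.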

Structures can show the parent of a compound that is named as a salt. Where only a bound is given, the exact number is not on record here.

`CC1CCCCN1CCCOC(=O)c1ccccc1` (stereo unspecified) [Piperocaine hydrochloride] had an IC50 cell viability (ICRF193 0 nM) above 45.8 µM and an IC50 cell viability (ICRF193 200 nM) above 45.8 µM.
As for `CC(C)(CO)[C@@H](O)C(=O)NCCCO` [Dexpanthenol], the IC50 cell viability is, setting by setting: (ICRF193 0 nM) above 45.8 µM; (ICRF193 200 nM) above 45.8 µM.
For `CNS(=O)(=O)C[C@H]1CC[C@H](N(C)c2[nH]cnc3nccc2-3)CC1` [Oclacitinib], the IC50 cell viability was above 45.8 µM (ICRF193 0 nM) and above 45.8 µM (ICRF193 200 nM).
On to `CC[C@H](C)C(=O)O[C@H]1C[C@H](O)C=C2C=C[C@H](C)[C@H](CC[C@@H](O)C[C@@H](O)CC(=O)O)[C@H]21` [Pravastatin], for which the IC50 cell viability reads like this: (ICRF193 0 nM) above 45.8 µM; (ICRF193 200 nM) above 45.8 µM.
With `CC(=O)OCC(=O)[C@@]1(O)[C@H](C)C[C@H]2[C@@H]3C[C@H](F)C4=CC(=O)C=C[C@]4(C)[C@@]3(F)[C@@H](O)C[C@@]21C` [Flumethasone acetate], the IC50 cell viability is, setting by setting: (ICRF193 0 nM) above 45.8 µM; (ICRF193 200 nM) above 45.8 µM.
Turning to `COc1cc(C(=O)NCc2ccc(OCCN(C)C)cc2)cc(OC)c1OC` [Trimethobenzamide hydrochloride], the IC50 cell viability (ICRF193 0 nM) is above 45.8 µM and the IC50 cell viability (ICRF193 200 nM) is above 45.8 µM.
Regarding `COC(=O)N/N=C/c1c[n+]([O-])c2ccccc2[n+]1[O-]` [Carbadox], the IC50 cell viability reads like this: (ICRF193 0 nM) above 45.8 µM; (ICRF193 200 nM) above 45.8 µM.
On to `CN1C(=O)C[C@@H](C(=O)N[C@@H](Cc2c[nH]cn2)C(=O)N2CCC[C@H]2C(N)=O)NC1=O` [Taltirelin], for which the IC50 cell viability by setting is: (ICRF193 0 nM) above 45.8 µM; (ICRF193 200 nM) above 45.8 µM.
Turning to `C[N+]1(C)CCC(OC(=O)C(O)(c2ccccc2)C2CCCC2)C1` (stereo unspecified) [Glycopyrrolate bromide], the IC50 cell viability reads like this: (ICRF193 0 nM) above 45.8 µM; (ICRF193 200 nM) above 45.8 µM.
In turn, `Cc1cccc(Nc2ccncc2S(=O)(=O)NC(=O)NC(C)C)c1` [Torsemide] showed an IC50 cell viability (ICRF193 0 nM) above 45.8 µM and an IC50 cell viability (ICRF193 200 nM) above 45.8 µM.
`NS(=O)(=O)c1cc(-c2nnn[nH]2)c(NCc2cccs2)cc1Cl` [Azosemide]: the IC50 cell viability by setting is: (ICRF193 0 nM) above 45.8 µM; (ICRF193 200 nM) above 45.8 µM.
Turning to `CCCN(CCC)S(=O)(=O)c1ccc(C(=O)O)cc1` [Probenecid], the IC50 cell viability reads like this: (ICRF193 0 nM) above 45.8 µM; (ICRF193 200 nM) above 45.8 µM.
Regarding `CN1CCOC(c2ccccc2)c2ccccc2C1` (stereo unspecified) [Nefopam hydrochloride], the IC50 cell viability was above 45.8 µM (ICRF193 0 nM) and above 45.8 µM (ICRF193 200 nM).
As to `CCCNCC(O)COc1ccccc1C(=O)CCc1ccccc1` (stereo unspecified) [Propafenone hydrochloride], the IC50 cell viability (ICRF193 0 nM) was above 45.8 µM and the IC50 cell viability (ICRF193 200 nM) is above 45.8 µM.
`CN(C)CCC(O)(c1ccccc1)c1ccccc1Cl` (stereo unspecified) [Chlophedianol]: the IC50 cell viability runs as follows: (ICRF193 0 nM) above 45.8 µM; (ICRF193 200 nM) above 45.8 µM.
For the compound `O=C(O)Cc1sc(-c2ccccc2)nc1-c1ccc(Cl)cc1` [Fentiazac], the IC50 cell viability (ICRF193 0 nM) is above 45.8 µM and the IC50 cell viability (ICRF193 200 nM) was above 45.8 µM.
As to `Nc1ncn([C@H]2C[C@H](O)[C@@H](CO)O2)c(=O)n1` [Decitabine], the IC50 cell viability is above 45.8 µM (ICRF193 0 nM) and above 45.8 µM (ICRF193 200 nM).
Consider `CO[C@@H]1[C@H](OC(=O)/C=C/C=C/C=C/C=C/C(=O)O)CC[C@]2(CO2)[C@H]1[C@@]1(C)O[C@@H]1CC=C(C)C` [Fumagillin], for which the IC50 cell viability was above 45.8 µM (ICRF193 0 nM) and above 45.8 µM (ICRF193 200 nM).
For `O=C(O)C(=O)O.[NH-][C@@H]1CCCC[C@H]1[NH-].[Pt+2]` [Oxaliplatin], the IC50 cell viability was above 45.8 µM (ICRF193 0 nM) and above 45.8 µM (ICRF193 200 nM).
In turn, `C=CCN1CC[C@]23c4c5ccc(O)c4O[C@H]2C(=O)CC[C@@]3(O)[C@H]1C5` [Naloxone] showed an IC50 cell viability (ICRF193 0 nM) above 45.8 µM and an IC50 cell viability (ICRF193 200 nM) above 45.8 µM.
`CC(C)(C)NC(=O)N[C@H](C(=O)N1C[C@H]2[C@@H]([C@H]1C(=O)NC(CC1CCC1)C(=O)C(N)=O)C2(C)C)C(C)(C)C` (stereo partly specified) [Boceprevir]: the IC50 cell viability was above 45.8 µM (ICRF193 0 nM) and above 45.8 µM (ICRF193 200 nM).
For the compound `COc1ccc(CCN(C)CCCC(C#N)(c2cc(OC)c(OC)c(OC)c2)C(C)C)cc1OC` (stereo unspecified) [Gallopamil hydrochloride], the IC50 cell viability reads like this: (ICRF193 0 nM) above 45.8 µM; (ICRF193 200 nM) above 45.8 µM.
In the case of `C[C@H]1C[C@H]2[C@@H]3CCC4=CC(=O)C=C[C@]4(C)[C@H]3C(=O)C[C@]2(C)[C@@]1(O)C(=O)CO` [Meprednisone], the IC50 cell viability reads like this: (ICRF193 0 nM) above 45.8 µM; (ICRF193 200 nM) above 45.8 µM.
For `CCC(C(=O)NC(=O)NC(C)=O)c1ccccc1` (stereo unspecified) [Acetylpheneturide], the IC50 cell viability by setting is: (ICRF193 0 nM) above 45.8 µM; (ICRF193 200 nM) above 45.8 µM.
In the case of `C[N+]1(C)[C@@H]2C[C@@H](OC(=O)C(O)(c3cccs3)c3cccs3)C[C@H]1[C@@H]1O[C@@H]12` [Tiotropium (Bromide)], the IC50 cell viability is above 45.8 µM (ICRF193 0 nM) and above 45.8 µM (ICRF193 200 nM).
`C=C[C@H]1CN2CC[C@H]1C[C@@H]2[C@@H](O)c1ccnc2ccc(OC)cc12` [Quinidine hydrochloride monohydrate] had an IC50 cell viability (ICRF193 0 nM) above 45.8 µM and an IC50 cell viability (ICRF193 200 nM) above 45.8 µM.
With `Cc1cc(C(=O)NNCc2ccccc2)no1` [Isocarboxazid], the IC50 cell viability was above 45.8 µM (ICRF193 0 nM) and above 45.8 µM (ICRF193 200 nM).
On to `CC[C@H](C)[C@@H]1NC(=O)[C@H](Cc2ccc(O)cc2)NC(=O)[C@@H](N)CSSC[C@@H](C(=O)N2CCC[C@H]2C(=O)N[C@@H](CC(C)C)C(=O)NCC(N)=O)NC(=O)[C@H](CC(N)=O)NC(=O)[C@H](CCC(N)=O)NC1=O` [Oxytocin], for which the IC50 cell viability is, setting by setting: (ICRF193 0 nM) above 45.8 µM; (ICRF193 200 nM) above 45.8 µM.
In turn, `CN1CCN(C(c2ccccc2)c2ccccc2)CC1` [Cyclizine hydrochloride] displayed an IC50 cell viability (ICRF193 0 nM) above 45.8 µM and an IC50 cell viability (ICRF193 200 nM) above 45.8 µM.
With `O=C(O)c1cc(O)c(O)c(O)c1` [Gallic acid], the IC50 cell viability (ICRF193 0 nM) was above 45.8 µM and the IC50 cell viability (ICRF193 200 nM) is above 45.8 µM.
Consider `O=C(O[C@H]1C[N+]2(CCCOc3ccccc3)CCC1CC2)C(O)(c1cccs1)c1cccs1` [Aclidinium (Bromide)], for which the IC50 cell viability is above 45.8 µM (ICRF193 0 nM) and above 45.8 µM (ICRF193 200 nM).
On to `CCOCCOC(=O)/C=C/c1ccc(OC)cc1` [Cinoxate], for which the IC50 cell viability was above 45.8 µM (ICRF193 0 nM) and above 45.8 µM (ICRF193 200 nM).
Take `NC(CO)C(=O)NNCc1ccc(O)c(O)c1O` (stereo unspecified) [Benserazide]: the IC50 cell viability (ICRF193 0 nM) is above 45.8 µM and the IC50 cell viability (ICRF193 200 nM) was above 45.8 µM.
Regarding `CCCNC(C)C(=O)Nc1c(C)csc1C(=O)OC` (stereo unspecified) [Articaine hydrochloride], the IC50 cell viability is above 45.8 µM (ICRF193 0 nM) and above 45.8 µM (ICRF193 200 nM).
Regarding `NCCN.[Cl][Pt][Cl]` [Dichloro(ethylenediamine)platinum(II)], the IC50 cell viability is above 45.8 µM (ICRF193 0 nM) and above 45.8 µM (ICRF193 200 nM).
`O=C(OCc1ccccc1)c1ccc(O)cc1` [Benzylparaben]: the IC50 cell viability was above 45.8 µM (ICRF193 0 nM) and above 45.8 µM (ICRF193 200 nM).
For the compound `CNC(=O)c1c(I)c(NC(C)=O)c(I)c(C(=O)O)c1I` [Iothalamate sodium], the IC50 cell viability is above 45.8 µM (ICRF193 0 nM) and above 45.8 µM (ICRF193 200 nM).
Turning to `NCCCC(N)(C(=O)O)C(F)F` (stereo unspecified) [Eflornithine Hydrochloride], the IC50 cell viability reads like this: (ICRF193 0 nM) above 45.8 µM; (ICRF193 200 nM) above 45.8 µM.
As for `CCN(CC)CCOC(=O)C1(C2CCCCC2)CCCCC1` [Dicyclomine], the IC50 cell viability (ICRF193 0 nM) is above 45.8 µM and the IC50 cell viability (ICRF193 200 nM) was above 45.8 µM.
As to `CCCCCCCC(=O)OCC(O)CO` (stereo unspecified) [2,3-Dihydroxypropyl octanoate], the IC50 cell viability is, setting by setting: (ICRF193 0 nM) above 45.8 µM; (ICRF193 200 nM) above 45.8 µM.
Take `COc1ccc(-c2ccc3cc(C(=O)O)ccc3c2)cc1C12CC3CC(CC(C3)C1)C2` [Adapalene]: the IC50 cell viability (ICRF193 0 nM) is above 45.8 µM and the IC50 cell viability (ICRF193 200 nM) is above 45.8 µM.
For `CCc1cccc2c3c([nH]c12)C(CC)(CC(=O)O)OCC3` (stereo unspecified) [Etodolac], the IC50 cell viability by setting is: (ICRF193 0 nM) above 45.8 µM; (ICRF193 200 nM) above 45.8 µM.
Regarding `CC(NCCc1ccc(O)cc1)C(O)c1ccc(O)cc1` (stereo unspecified) [Ritodrine hydrochloride], the IC50 cell viability (ICRF193 0 nM) is above 45.8 µM and the IC50 cell viability (ICRF193 200 nM) is above 45.8 µM.
For `COc1ccc2[nH]c([S+]([O-])Cc3ncc(C)c(OC)c3C)nc2c1` (stereo unspecified) [Omeprazole], the IC50 cell viability was above 45.8 µM (ICRF193 0 nM) and above 45.8 µM (ICRF193 200 nM).
On to `OB1OCc2cc(F)ccc21` [AN-2690], for which the IC50 cell viability is, setting by setting: (ICRF193 0 nM) above 45.8 µM; (ICRF193 200 nM) above 45.8 µM.
With `CCC[C@@H]1C[C@@H](C(=O)N[C@@H]([C@H]2O[C@H](SC)[C@H](OP(=O)(O)O)[C@@H](O)[C@H]2O)[C@H](C)Cl)N(C)C1` [Clindamycin Phosphate], the IC50 cell viability is above 45.8 µM (ICRF193 0 nM) and above 45.8 µM (ICRF193 200 nM).
For the compound `CC(=O)O[C@H]1CC[C@@]2(C)C(=CC[C@H]3[C@@H]4CC[C@H](C(C)=O)[C@@]4(C)CC[C@@H]32)C1` [Pregnenolone acetate], the IC50 cell viability runs as follows: (ICRF193 0 nM) above 45.8 µM; (ICRF193 200 nM) above 45.8 µM.
Turning to `O=c1c(O)c(-c2ccc(O)c(O)c2)oc2cc(O)cc(O)c12` [Quercetin], the IC50 cell viability by setting is: (ICRF193 0 nM) above 45.8 µM; (ICRF193 200 nM) above 45.8 µM.
`CC(/C=C1\SC(=S)N(CC(=O)O)C1=O)=C\c1ccccc1` [Epalrestat]: the IC50 cell viability reads like this: (ICRF193 0 nM) above 45.8 µM; (ICRF193 200 nM) above 45.8 µM.
In the case of `CNC1CC(N)C(O)C(OC2OC(CO)C(O)C3OC4(OC(C(N)CO)C(O)C(O)C4O)OC23)C1O` (stereo unspecified) [Hygromycin B], the IC50 cell viability is, setting by setting: (ICRF193 0 nM) above 45.8 µM; (ICRF193 200 nM) above 45.8 µM.
`C[C@]1(COc2ccc(N3CCC(Oc4ccc(OC(F)(F)F)cc4)CC3)cc2)Cn2cc([N+](=O)[O-])nc2O1` [Delamanid] gave an IC50 cell viability (ICRF193 0 nM) above 45.8 µM and an IC50 cell viability (ICRF193 200 nM) above 45.8 µM.
In the case of `CN1CCN(C2=Nc3cc(Cl)ccc3Nc3ccccc32)CC1` [Clozapine], the IC50 cell viability is above 45.8 µM (ICRF193 0 nM) and above 45.8 µM (ICRF193 200 nM).
Turning to `Nc1nc(N)nc(-c2cc(Cl)ccc2Cl)n1` [Irsogladine maleate], the IC50 cell viability is above 45.8 µM (ICRF193 0 nM) and above 45.8 µM (ICRF193 200 nM).
